# Reference: patent publication US20110250135A1, “Piperazine Derivatives for Binding and Imaging Amyloid Plaques and Their Use” (Bayer Schering Pharma Aktiengesellschaft, priority 2008, published 2011)
# Columns and labels:
# [1] = Biodistribution: organ distribution of F-18 signal in mice; type: in vivo, male NMRI mice; conditions: for Organ distribution of F-18 signal, intestine: intestine (with content); for Organ distribution of F-18 signal, stomach: stomach (without content)
# Experimental: Biodistribution and excretion studies were performed in male NMRI mice (body weight app. 30g; 3 animals per time point). The animals were kept under normal laboratory conditions at a temperature of 22±2° C. and a dark/light rhythm of 12 hours. Food and water were provided ad libitium. During an acclimation period of at least 3 days before the beginning of the study animals were clinically examined to ascertain the absence of abnormal clinical signs. At 2, 5, 30, 60, 240 min post intravenous injection via the tail vein of ca. 150 kBq in 100 μl of the test compound, urine and feces were quantitatively collected. At the same time points, animals were sacrificed by decapitation and under isoflurane anaesthesia and the following organs and tissues were removed for the determination of radioactivity using a gamma-counter: spleen, liver, kidney, lung, femur, heart, brain, fat, thyroid, muscle, skin, blood, tail, stomach (without content), testicle, intestine (with content), pancreas, adrenals, and the remaining body. For analysis the decay corrected percentage of the injected dose per tissue weight (% ID/g±standard deviation) was calculated.
# [2] = molecular target: T1, Aβ plaques (Homo sapiens, UniProt P05067); experiment: Autoradiographical analysis of binding to cryosections from cortex of AD patients and controls; conditions: F-18 labeled compound; Alzheimer's disease patients (AD) vs controls without Aβ plaques
# T1 construct: controls without Aβ plaques; from tissue; host or cells: frontal lobe / cortex sections (frozen and paraffin) from AD patients, FTD patients and age-matched controls
# T1 sequence (P05067 672-713 limits assumed): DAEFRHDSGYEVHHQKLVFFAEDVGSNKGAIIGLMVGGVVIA
# From the text: Fresh frozen as well as paraffin embedded sections of the frontal lobe from Alzheimer's dementia patients, frontotemporal dementia patients and age matched controls were used for the study. Frozen sections, sliced at 18 μm thickness on a cryostate (Leica, Germany) and paraffin sections, sliced on a sliding microtom (Leica) at a thickness of 6 μm, were mounted onto glass slides (Superfrost Plus, Fa.Menzel, Braunschweig Germany). Frozen sections were allowed to adhere to the slides for several nights at −20° C. The paraffin sections were deparaffinized using routine histological methods. For binding studies sections were incubated with the F-18 labeled test compound at 10 Bq/μl diluted in 25 mM Hepes buffer, pH 7.4, 0.1% (BSA) (200-300 μl/slide) for 1.5 hour at room temperature in a humidified chamber. For blocking experiments a 1000-fold access of the unlabeled test substance was added to the incubation mixture. After hybridization, sections were washed four times with Hepes buffer, 0.1% BSA (or alternatively two times with 40% ethanol) and finally dipped two times into dest. water for 10 sec. The air-dried sections were exposed to imaging plates and signals were detected by a phosphoimager device (Fuji BAS5000).
structure (smiles),measurement,setting,value
"O=C(NCC(=O)N1CCN(c2ccc(OCc3ccccc3)cc2)CC1)c1cccc(OCC[18F])c1 [Example 3g, N-{2-[4-(4-Benzyloxy-phenyl)-piperazin-1-yl]-2-oxo-ethyl}-3-(2-[F-18]fluoro-ethoxy)benzamide]","Organ distribution of F-18 signal, adrenals",[1]; 2 min post i.v. injection,7.57 % ID/g
same,"Organ distribution of F-18 signal, adrenals",[1]; 5 min post i.v. injection,10.67 % ID/g
same,"Organ distribution of F-18 signal, adrenals",[1]; 30 min post i.v. injection,4.49 % ID/g
same,"Organ distribution of F-18 signal, adrenals",[1]; 60 min post i.v. injection,1.77 % ID/g
same,"Organ distribution of F-18 signal, adrenals",[1]; 240 min post i.v. injection,1.03 % ID/g
same,"Organ distribution of F-18 signal, blood",[1]; 2 min post i.v. injection,1.72 % ID/g
same,"Organ distribution of F-18 signal, blood",[1]; 5 min post i.v. injection,2.12 % ID/g
same,"Organ distribution of F-18 signal, blood",[1]; 30 min post i.v. injection,1.85 % ID/g
same,"Organ distribution of F-18 signal, blood",[1]; 60 min post i.v. injection,1.32 % ID/g
same,"Organ distribution of F-18 signal, blood",[1]; 240 min post i.v. injection,0.57 % ID/g
same,"Organ distribution of F-18 signal, brain",[1]; 2 min post i.v. injection,5.15 % ID/g
same,"Organ distribution of F-18 signal, brain",[1]; 5 min post i.v. injection,4.14 % ID/g
same,"Organ distribution of F-18 signal, brain",[1]; 30 min post i.v. injection,1.66 % ID/g
same,"Organ distribution of F-18 signal, brain",[1]; 60 min post i.v. injection,0.93 % ID/g
same,"Organ distribution of F-18 signal, brain",[1]; 240 min post i.v. injection,0.42 % ID/g
same,"Organ distribution of F-18 signal, fat",[1]; 2 min post i.v. injection,1.97 % ID/g
same,"Organ distribution of F-18 signal, fat",[1]; 5 min post i.v. injection,2.44 % ID/g
same,"Organ distribution of F-18 signal, fat",[1]; 30 min post i.v. injection,4.26 % ID/g
same,"Organ distribution of F-18 signal, fat",[1]; 60 min post i.v. injection,2.38 % ID/g
same,"Organ distribution of F-18 signal, fat",[1]; 240 min post i.v. injection,0.34 % ID/g
same,"Organ distribution of F-18 signal, femur",[1]; 2 min post i.v. injection,1.95 % ID/g
same,"Organ distribution of F-18 signal, femur",[1]; 5 min post i.v. injection,1.79 % ID/g
same,"Organ distribution of F-18 signal, femur",[1]; 30 min post i.v. injection,1.05 % ID/g
same,"Organ distribution of F-18 signal, femur",[1]; 60 min post i.v. injection,1.11 % ID/g
same,"Organ distribution of F-18 signal, femur",[1]; 240 min post i.v. injection,3.06 % ID/g
same,"Organ distribution of F-18 signal, heart",[1]; 2 min post i.v. injection,15.57 % ID/g
same,"Organ distribution of F-18 signal, heart",[1]; 5 min post i.v. injection,8.25 % ID/g
same,"Organ distribution of F-18 signal, heart",[1]; 30 min post i.v. injection,3.47 % ID/g
same,"Organ distribution of F-18 signal, heart",[1]; 60 min post i.v. injection,2.07 % ID/g
same,"Organ distribution of F-18 signal, heart",[1]; 240 min post i.v. injection,0.61 % ID/g
same,"Organ distribution of F-18 signal, intestine",[1]; 2 min post i.v. injection,1.93 % ID/g
same,"Organ distribution of F-18 signal, intestine",[1]; 5 min post i.v. injection,1.87 % ID/g
same,"Organ distribution of F-18 signal, intestine",[1]; 30 min post i.v. injection,4.58 % ID/g
same,"Organ distribution of F-18 signal, intestine",[1]; 60 min post i.v. injection,6.47 % ID/g
same,"Organ distribution of F-18 signal, intestine",[1]; 240 min post i.v. injection,8.50 % ID/g
same,"Organ distribution of F-18 signal, kidney",[1]; 2 min post i.v. injection,15.52 % ID/g
same,"Organ distribution of F-18 signal, kidney",[1]; 5 min post i.v. injection,14.38 % ID/g
same,"Organ distribution of F-18 signal, kidney",[1]; 30 min post i.v. injection,11.43 % ID/g
same,"Organ distribution of F-18 signal, kidney",[1]; 60 min post i.v. injection,7.70 % ID/g
same,"Organ distribution of F-18 signal, kidney",[1]; 240 min post i.v. injection,1.05 % ID/g
same,"Organ distribution of F-18 signal, liver",[1]; 2 min post i.v. injection,6.35 % ID/g
same,"Organ distribution of F-18 signal, liver",[1]; 5 min post i.v. injection,13.36 % ID/g
same,"Organ distribution of F-18 signal, liver",[1]; 30 min post i.v. injection,8.75 % ID/g
same,"Organ distribution of F-18 signal, liver",[1]; 60 min post i.v. injection,5.04 % ID/g
same,"Organ distribution of F-18 signal, liver",[1]; 240 min post i.v. injection,1.44 % ID/g
same,"Organ distribution of F-18 signal, lung",[1]; 2 min post i.v. injection,5.58 % ID/g
same,"Organ distribution of F-18 signal, lung",[1]; 5 min post i.v. injection,4.05 % ID/g
same,"Organ distribution of F-18 signal, lung",[1]; 30 min post i.v. injection,2.55 % ID/g
same,"Organ distribution of F-18 signal, lung",[1]; 60 min post i.v. injection,1.66 % ID/g
same,"Organ distribution of F-18 signal, lung",[1]; 240 min post i.v. injection,0.59 % ID/g
same,"Organ distribution of F-18 signal, muscle",[1]; 2 min post i.v. injection,3.95 % ID/g
same,"Organ distribution of F-18 signal, muscle",[1]; 5 min post i.v. injection,3.17 % ID/g
same,"Organ distribution of F-18 signal, muscle",[1]; 30 min post i.v. injection,1.95 % ID/g
same,"Organ distribution of F-18 signal, muscle",[1]; 60 min post i.v. injection,1.31 % ID/g
same,"Organ distribution of F-18 signal, muscle",[1]; 240 min post i.v. injection,0.30 % ID/g
same,"Organ distribution of F-18 signal, pancreas",[1]; 2 min post i.v. injection,4.96 % ID/g
same,"Organ distribution of F-18 signal, pancreas",[1]; 5 min post i.v. injection,4.26 % ID/g
same,"Organ distribution of F-18 signal, pancreas",[1]; 30 min post i.v. injection,2.21 % ID/g
same,"Organ distribution of F-18 signal, pancreas",[1]; 60 min post i.v. injection,1.22 % ID/g
same,"Organ distribution of F-18 signal, pancreas",[1]; 240 min post i.v. injection,0.32 % ID/g
same,"Organ distribution of F-18 signal, skin",[1]; 2 min post i.v. injection,1.72 % ID/g
same,"Organ distribution of F-18 signal, skin",[1]; 5 min post i.v. injection,2.15 % ID/g
same,"Organ distribution of F-18 signal, skin",[1]; 30 min post i.v. injection,1.93 % ID/g
same,"Organ distribution of F-18 signal, skin",[1]; 60 min post i.v. injection,1.29 % ID/g
same,"Organ distribution of F-18 signal, skin",[1]; 240 min post i.v. injection,0.42 % ID/g
same,"Organ distribution of F-18 signal, spleen",[1]; 2 min post i.v. injection,1.73 % ID/g
same,"Organ distribution of F-18 signal, spleen",[1]; 5 min post i.v. injection,2.22 % ID/g
same,"Organ distribution of F-18 signal, spleen",[1]; 30 min post i.v. injection,1.28 % ID/g
same,"Organ distribution of F-18 signal, spleen",[1]; 60 min post i.v. injection,0.86 % ID/g
same,"Organ distribution of F-18 signal, spleen",[1]; 240 min post i.v. injection,0.36 % ID/g
same,"Organ distribution of F-18 signal, stomach",[1]; 2 min post i.v. injection,4.78 % ID/g
same,"Organ distribution of F-18 signal, stomach",[1]; 5 min post i.v. injection,4.49 % ID/g
same,"Organ distribution of F-18 signal, stomach",[1]; 30 min post i.v. injection,2.20 % ID/g
same,"Organ distribution of F-18 signal, stomach",[1]; 60 min post i.v. injection,1.53 % ID/g
same,"Organ distribution of F-18 signal, stomach",[1]; 240 min post i.v. injection,0.82 % ID/g
same,"Organ distribution of F-18 signal, tail",[1]; 2 min post i.v. injection,8.94 % ID/g
same,"Organ distribution of F-18 signal, tail",[1]; 5 min post i.v. injection,9.06 % ID/g
same,"Organ distribution of F-18 signal, tail",[1]; 30 min post i.v. injection,4.73 % ID/g
same,"Organ distribution of F-18 signal, tail",[1]; 60 min post i.v. injection,2.57 % ID/g
same,"Organ distribution of F-18 signal, tail",[1]; 240 min post i.v. injection,1.98 % ID/g
same,"Organ distribution of F-18 signal, testicle",[1]; 2 min post i.v. injection,1.19 % ID/g
same,"Organ distribution of F-18 signal, testicle",[1]; 5 min post i.v. injection,1.58 % ID/g
same,"Organ distribution of F-18 signal, testicle",[1]; 30 min post i.v. injection,1.44 % ID/g
same,"Organ distribution of F-18 signal, testicle",[1]; 60 min post i.v. injection,1.84 % ID/g
same,"Organ distribution of F-18 signal, testicle",[1]; 240 min post i.v. injection,0.38 % ID/g
same,"Organ distribution of F-18 signal, thyroid",[1]; 2 min post i.v. injection,3.87 % ID/g
same,"Organ distribution of F-18 signal, thyroid",[1]; 5 min post i.v. injection,3.67 % ID/g
same,"Organ distribution of F-18 signal, thyroid",[1]; 30 min post i.v. injection,1.78 % ID/g
same,"Organ distribution of F-18 signal, thyroid",[1]; 60 min post i.v. injection,1.04 % ID/g
same,"Organ distribution of F-18 signal, thyroid",[1]; 240 min post i.v. injection,0.56 % ID/g
same,autoradiographical analysis of binding to cryosections from cortex,[2],Specific binding in plaque-rich regions of AD samples
